Experimental data from patent publication US8269014B2, “Thiophene analogues for the treatment or prevention of flavivirus infections” (Vertex Pharmaceuticals (Canada) Incorporated, priority 2006, dated 2012).

Legend:
CYP3A4 = experiment: Induction in cultured human hepatocytes (CYP3A4 activity and mRNA); format: in vitro ADME; conditions: relative to compound E / other thiophene analogues
[1] = Stability in human and rat microsomes; format: in vitro ADME; conditions: human and rat hepatic microsomes; relative to compound E / other thiophene analogues
Protocol: Incubations containing no NADPH and no UDPGA are used as controls. The compounds are incubated at 50 uM for 0 and 60 minutes. The reaction is stopped by the addition of an equal volume of acetonitrile. The mixture is centrifuged and the supernatant is analyzed by HPLC/UV or MS/MS. The percentage parent remaining corresponds to the area of the parent compound in the 60-minute incubation versus the area of the parent compound in a 0-minute incubation ×100.

[2] = tested on: HCV replicon cells (Huh-7 ET cells); format: cell-based, human; conditions: Ratio of CC50/IC50 in HCV replicon cells (Huh-7 ET cells); average TI when tested more than once

SMILES	induction profile in human hepatocytes (CYP3A4)	microsome stability profile [1]	TI [2]
CC(C)(C)C#Cc1cc(N(C(=O)[C@H]2CC[C@H](C)CC2)[C@H]2CC[C@H](O)CC2)c(C(=O)O)s1 [Compound 1, 5-(3,3-DIMETHYL-BUT-1-YNYL)-3-[(TRANS-4-HYDROXY-CYCLOHEXYL)-(TRANS-4-METHYL-CYCLOHEXANECARBONYL)-AMINO]-THIOPHENE-2-CARBOXYLIC ACID]	better	better	++++++ (++++++: >6000)
COC1CCC(N(C(=O)C2CCC(C)CC2)c2cc(-c3ccccc3)sc2C(=O)O)CC1 (stereo not shown) [C, reference compound]	–	–	+ (+: <100)
CC(C)(C)C#Cc1cc(N(C(=O)[C@H]2CC[C@H](C)CC2)[C@H]2CC[C@H](F)CC2)c(C(=O)O)s1 [Compound 9, 5-(3,3-DIMETHYL-BUT-1-YNYL)-3-[(TRANS-4-FLUORO-CYCLOHEXYL)-(TRANS-4-METHYL-CYCLOHEXANECARBONYL)-AMINO]-THIOPHENE-2-CARBOXYLIC ACID]	–	–	++++++ (++++++: >6000)
CC(C)(C)C#Cc1cc(N(C(=O)[C@H]2CC[C@H](C)CC2)[C@H]2CC[C@H](n3cncn3)CC2)c(C(=O)O)s1 [Compound 4, 5-(3,3-DIMETHYL-BUT-1-YNYL)-3-[(TRANS-4-METHYL-CYCLOHEXANECARBONYL)-(TRANS-4-[1,2,4]TRIAZOL-1-YL-CYCLOHEXYL)-AMINO]-THIOPHENE-2-CARBOXYLIC ACID]	–	–	++++ (++++: 2000-4000)
CC1CCC(C(=O)N(c2cc(-c3ccccc3)sc2C(=O)O)C2CCC(F)CC2)CC1 (stereo not shown) [H, reference compound]	–	–	+ (+: <100)
CC(C)(C)C#Cc1cc(N(C(=O)[C@H]2CC[C@H](C)CC2)[C@H]2CC[C@@H](O)CC2)c(C(=O)O)s1 [Compound 5, 5-(3,3-DIMETHYL-BUT-1-YNYL)-3-[(CIS-4-HYDROXY-CYCLOHEXYL)-(TRANS-4-METHYL-CYCLOHEXANECARBONYL)-AMINO]-THIOPHENE-2-CARBOXYLIC ACID]	–	–	++++++ (++++++: >6000)
CC1CCC(C(=O)N(c2cc(-c3ccccc3)sc2C(=O)O)C2CCC(n3cncn3)CC2)CC1 (stereo not shown) [G, reference compound]	–	–	+++ (+++: 1000-2000)
CC(C)(C)C#Cc1cc(N(C(=O)[C@H]2CC[C@H](C)CC2)[C@H]2CC[C@@H](n3cncn3)CC2)c(C(=O)O)s1 [Compound 3, 5-(3,3-DIMETHYL-BUT-1-YNYL)-3-[(TRANS-4-METHYL-CYCLOHEXANECARBONYL)-(CIS-4-[1,2,4]TRIAZOL-1-YL-CYCLOHEXYL)-AMINO]-THIOPHENE-2-CARBOXYLIC ACID]	–	–	++++++ (++++++: >6000)
CC1CCC(C(=O)N(c2cc(C#CC(C)(C)C)sc2C(=O)O)C(C)C)CC1 (stereo not shown) [E, reference compound]	–	–	+++ (+++: 1000-2000)
CC1CCC(C(=O)N(c2cc(-c3ccccc3)sc2C(=O)O)C(C)C)CC1 (stereo not shown) [A, reference compound]	–	–	++ (++: 100-1000)
CC1CCC(C(=O)N(c2cc(-c3ccccc3)sc2C(=O)O)C2CCC(n3ccnn3)CC2)CC1 (stereo not shown) [F, reference compound]	–	–	++ (++: 100-1000)
CC1CCC(C(=O)N(c2cc(-c3ccccc3)sc2C(=O)O)C2CCC(O)CC2)CC1 (stereo not shown) [B, reference compound]	–	–	++ (++: 100-1000)
CC1CCC(C(=O)N(c2cc(C#CC(C)(C)C)sc2C(=O)O)C2CCC(n3ccnn3)CC2)CC1 (stereo not drawn) [Compound 7, 5-(3,3-DIMETHYL-BUT-1-YNYL)-3-[(TRANS-4-METHYL-CYCLOHEXANECARBONYL)-(4-CIS-[1,2,3]TRIAZOL-1-YL-CYCLOHEXYL)-AMINO]-THIOPHENE-2-CARBOXYLIC ACID]	–	–	+++++ (+++++: 4000-6000)
CC(C)(C)C#Cc1cc(N(C(=O)[C@H]2CC[C@H](C)CC2)[C@H]2CC[C@H](n3ccnn3)CC2)c(C(=O)O)s1 [Compound 8, 5-(3,3-DIMETHYL-BUT-1-YNYL)-3-[(TRANS-4-METHYL-CYCLOHEXANECARBONYL)-(TRANS-4-[1,2,3]TRIAZOL-1-YL-CYCLOHEXYL)-AMINO]-THIOPHENE-2-CARBOXYLIC ACID]	–	–	++++++ (++++++: >6000)
CO[C@H]1CC[C@H](N(c2cc(C#CC(C)(C)C)sc2C(=O)O)C(=O)[C@H]2CC[C@H](C)CC2)CC1 [Compound 2, 5-(3,3-DIMETHYL-BUT-1-YNYL)-3-[(TRANS-4-METHOXY-CYCLOHEXYL)-(TRANS-4-METHYL-CYCLOHEXANECARBONYL)-AMINO]-THIOPHENE-2-CARBOXYLIC ACID]	better	better	+++ (+++: 1000-2000)
